Measurements taken from patent publication US20250275953A1, “VODOBATINIB FOR REDUCING PROGRESSION OF PARKINSON'S DISEASE” (Sun Pharma Advanced Research Company Ltd., priority 2022, published 2025).
Like-named read-outs stand apart in the source and are kept apart here.

Assay: Plasma pharmacokinetics, 7 once-daily oral doses, healthy volunteers
Format: in vivo, human
Details: for Cmax / Tmax / AUC(0-t): male, human, plasma, oral
Method: After 28 days of screening, the subjects were studied in sequential cohorts of 6 subjects each. The study was conducted for 17 days. […] After the dose, subjects continued to fast for additional 4 hours, water was allowed ad libitum with the exception of 1 hour prior and 1-hour post dose.
The plasma and CSF samples were analyzed, by validated LC/MS-MS methods. PK analysis was conducted based on PK/PP Population: Cmax, AUC0-t, AUC0-24, AUC0-∞, Tmax, Cavg, CL/F, Cmin, t1/2, Kel, Vd (V/F; Vd/F), and Vss/F. Model-independent plasma PK parameters (Cmax, Tmax, t1/2, AUC0-t, AUC0-24, AUC0-∞, Cavg, CL/F, Vss/F, Vd/F), after the first dose (Day 1) and last dose (Day 7), Cmin on Days 2-7) was listed by subject and summarized by study cohort. In addition to the descriptive statistics listed above, geometric means was reported for the pivotal PK endpoints (CL/F, Vss/F, Vd/F, Cmin, Cavg, AUC0-t, AUC0-24, AUC0-∞, and Cmax). For CSF, PK parameters (Cmax, Tmax, t1/2, AUC0-t, AUC0-24, Cmin, Cavg, CL/F, Vss/F) was listed by subject and summarized by cohort. Ratios of CSF: plasma concentration at each time point was listed by subject and summarized by study cohort.
Forty-one healthy adult male volunteers aged 18 to 45 with body mass indexes (BMI)≥18 to ≤30 Kg/m^2 and total body weight >50 kg (110 lb) were screened in order to enroll 19 subjects with an average age of 34.2 years (range 21.5-45.6 years) into this study Six participants were randomly assigned to the 48 and 192 mg cohorts, and seven participants were assigned to the 384 mg cohort. After an overnight fast, participants received once daily doses of vodobatinib as capsules for 7 days. Serial PK blood samples to measure vodobatinib plasma concentrations were collected at pre-dose and at 0.25, 0.5, 1, 1.5, 2, 2.5, 3, 4, 6, 8, 12, 16 and 24 h post-dose after the first dose on Day 1 and the last dose on day 7. Additional PK samples prior to the morning doses were taken on Days 3-6. On the morning of Day 7, prior to dosing, an indwelling intrathecal catheter was inserted in the lumbar region (L3-L5). Serial CSF samples were collected through the catheter connected via peristaltic pump to a fraction collector. At each designated CSF collection time point, 8 mL of CSF was collected at a flow rate of 0.5 mL/min over a 16-min period at pre-dose, and 0.5, 1.0, 1.5, 2, 2.5, 3, 4, 6, 8, 12 and 24 h post-dose. The first 2 mL of CSF was discarded, and the remaining 6 mL was used for the vodobatinib assay. The occurrence of treatment-emergent adverse events (TEAEs) and serious AEs (SAEs) reported through the completion of study were collected.

[1] = 48 mg, Day 7, plasma, healthy volunteers
[2] = 192 mg, Day 1, plasma, healthy volunteers
[3] = 192 mg, Day 7, plasma, healthy volunteers
[4] = 384 mg, Day 1, plasma, healthy volunteers
[5] = 384 mg, Day 7, plasma, healthy volunteers

Cc1ccc(C(=O)NNC(=O)c2c(C)cccc2Cl)cc1C#Cc1cnc2ccccc2c1 [N′-(2-chloro-6-methylbenzoyl)-4-methyl-3-[2-(3-quinolyl)ethynyl]-benzohydrazide]
AUC0-24 GM (48 mg, Day 1, plasma, healthy volunteers): 8691.6 ng·h/mL | AUC0-24 GM [1]: 10346.9 ng·h/mL | Cmax GM [1]: 1241.4 ng/mL | AUC0-24 GM [2]: 33425.8 ng·h/mL | Cmax GM [2]: 3550.7 ng/mL | AUC0-24 GM [3]: 39138.2 ng·h/mL | Cmax GM [3]: 5020.9 ng/mL | AUC0-24 GM [4]: 35536.5 ng·h/mL | Cmax GM [4]: 5387.1 ng/mL | AUC0-24 GM [5]: 42124.5 ng·h/mL | Cmax GM [5]: 6648.7 ng/mL | time within which peak plasma concentrations (Cmax) achieved (Day 1, across 48-384 mg cohorts): 2.8 to 4.0 h | Cmax (48 mg, Day 1, plasma, Healthy Subjects, Table 10, read-out: Cmax Mean): 1380 ng/mL | Tmax (48 mg, Day 1, plasma, Healthy Subjects, Table 10, read-out: Tmax median): 2.8 h | AUC(0-t) (48 mg, Day 1, plasma, Healthy Subjects, read-out: AUC0-24 Mean): 8870 ng·h/mL | AUC(0-t) (48 mg, Day 1, plasma, healthy volunteers, read-out: AUC0-24 AM): 8870 ng·h/mL | AUC(0-t) (48 mg, Day 1, plasma, healthy volunteers, read-out: AUC0-24 GM): 8690 ng·h/mL | AUC(0-t) (48 mg, Day 1, plasma, healthy volunteers, read-out: AUC0-24 Median): 8880 ng·h/mL | AUC(0-t) (48 mg, Day 1, plasma, healthy volunteers, read-out: AUC0-24 Min, Max): 5850 to 10800 ng·h/mL | Cmax (48 mg, Day 1, plasma, healthy volunteers, read-out: Cmax AM): 1380 ng/mL | Cmax (48 mg, Day 1, plasma, healthy volunteers, read-out: Cmax GM): 1330 ng/mL | Cmax (48 mg, Day 1, plasma, healthy volunteers, read-out: Cmax Median): 1220 ng/mL | Cmax (48 mg, Day 1, plasma, healthy volunteers, read-out: Cmax Min, Max): 1010 to 2000 ng/mL | Tmax (48 mg, Day 1, plasma, healthy volunteers, read-out: Tmax Median): 2.8 h | Tmax (48 mg, Day 1, plasma, healthy volunteers, read-out: Tmax Min, Max): 1.5 to 4 h | Cmax (48 mg, Day 7, plasma, Healthy Subjects, Table 10, read-out: Cmax Mean): 1400 ng/mL | Tmax (48 mg, Day 7, plasma, Healthy Subjects, Table 10, read-out: Tmax median (range)): 4 h | AUC(0-t) (48 mg, Day 7, plasma, Healthy Subjects, read-out: AUC0-24 Mean): 12900 ng·h/mL | AUC(0-t) (48 mg, Day 7, plasma, healthy volunteers, read-out: AUC0-24 AM): 12900 ng·h/mL | AUC(0-t) (48 mg, Day 7, plasma, healthy volunteers, read-out: AUC0-24 GM): 10300 ng·h/mL | AUC(0-t) (48 mg, Day 7, plasma, healthy volunteers, read-out: AUC0-24 Median): 11000 ng·h/mL | AUC(0-t) (48 mg, Day 7, plasma, healthy volunteers, read-out: AUC0-24 Min, Max): 2970 to 29000 ng·h/mL | Cmax (48 mg, Day 7, plasma, healthy volunteers, read-out: Cmax AM): 1400 ng/mL | Cmax (48 mg, Day 7, plasma, healthy volunteers, read-out: Cmax GM): 1240 ng/mL | Cmax (48 mg, Day 7, plasma, healthy volunteers, read-out: Cmax Median): 1340 ng/mL | Cmax (48 mg, Day 7, plasma, healthy volunteers, read-out: Cmax Min, Max): 421 to 2380 ng/mL | Tmax (48 mg, Day 7, plasma, healthy volunteers, read-out: Tmax Median): 4 h | Tmax (48 mg, Day 7, plasma, healthy volunteers, read-out: Tmax Min, Max): 1.5 to 12 h | Cmax (192 mg, Day 1, plasma, Healthy Subjects, Table 10, read-out: Cmax Mean): 3780 ng/mL | Tmax (192 mg, Day 1, plasma, Healthy Subjects, Table 10, read-out: Tmax median): 3.5 h | AUC(0-t) (192 mg, Day 1, plasma, Healthy Subjects, read-out: AUC0-24 Mean): 34500 ng·h/mL | AUC(0-t) (192 mg, Day 1, plasma, healthy volunteers, read-out: AUC0-24 AM): 34500 ng·h/mL | AUC(0-t) (192 mg, Day 1, plasma, healthy volunteers, read-out: AUC0-24 GM): 33400 ng·h/mL | AUC(0-t) (192 mg, Day 1, plasma, healthy volunteers, read-out: AUC0-24 Median): 34700 ng·h/mL | AUC(0-t) (192 mg, Day 1, plasma, healthy volunteers, read-out: AUC0-24 Min, Max): 22400 to 45600 ng·h/mL | Cmax (192 mg, Day 1, plasma, healthy volunteers, read-out: Cmax AM): 3780 ng/mL
